{"source": "paper PMC2192259", "about": "(The Journal of Experimental Medicine, 1995)", "system": "20S proteasome", "assay": "20S proteasome from BALB.SV cells in assay buffer", "conditions": "37C, up to 24 h", "note": "Entries after “also recorded” stand apart in the source; their conditions may differ."}
{"sequence": "MDIGAYPHFMPTNLAGDPY", "values": [{"measurement": "fragment found", "value": "YPHFMPTNL, major; also recorded: YPH- FMPTNL(ox)"}]}
